# Data reported in patent publication US12667584B2, “Adenosine analog and its use in regulating the circadian clock” (NATIONAL INSTITUTE OF BIOLOGICAL SCIENCES, BEIJING, priority 2017, dated 2026).
# System: Per2::Luc
# Experiment: In-vivo imaging of luciferase signal in Per2::Luc knockin mice
# Set-up: species or system mouse
# Procedure: Drug injection and in-vivo imaging analysis: mPer2Luciferase knockin mice were housed in Germ Free Animal Facility, under 12 h light/dark photoperiod, with food and water ad libitum. 8 week-old male mPer2Luciferase knockin mice were intraperitoneal injection with 15 mg/kg bw CA03 or DMSO. CA03 was firstly dissolved in DMSO to the concentration of 200 μg/μl, then dilute with saline to the final concentration of 1000 μg/ml for intraperitoneal injection. 1 h later, d-luciferin (Gold Bio.) was intraperitoneally injected. Relative luciferase activity were imaged on IVIS Lumina III system and analysed with in-vivo imaging software (PerkinElmer). […]
# Next, the inventors sought to determine whether the clock effects of cordycepin can be recaptured in vivo. […] This observation is especially true when nascent RNA levels were measured, highlighting the first-order, inductive response in E-box genes as previously proposed(FIG. 2B).
# To test whether cordycepin function in vivo, we firstly tested luciferase signal level by live imaging of Per2:LUC mice after intraperitoneal injection of 15 mg/kg cordycepin or DMSO. […] Prior evaluation the jet-leg cure ability of cordycepin, we detected whether cordycepin and it's prodrug pro-CA03 can penetrate BBB. We injected cordycepin or pro-CA03 via tail vein and time course sampled CSF and analyzed cordycepin pro-CA03 level with HPLC-MASS method. […]
smiles,measurement,setting,value
"Nc1ncnc2c1ncn2[C@@H]1O[C@H](CO)C[C@H]1O [Cordycepin, 3′-deoxy-adenosine]",increase of luciferase signal in liver compared with DMSO control,15 mg/kg intraperitoneal,more than 4 folds
same,time to induction of luciferase signal after drug administration,i.p. at ZT4,≤ 1 h
